According to patent US20040259864A1, “Substituted pyrimidinone derivatives as ligands of integrin receptors” (priority 2001, published 2004):

Molecular target: T1, integrin αvβ3 (Homo sapiens, UniProt P05106+P06756)
T1 construct: from tissue; host or cells: human placenta
Assay: Integrin αvβ3 assay (competition with vitronectin for binding to solid-phase integrin αvβ3)
Settings: integrin αvβ3 from human placenta, ranking in words only
Method: Integrin αvβ3 antagonists were identified and assessed using a test system based on competition between the natural integrin αvβ3 ligand vitronectin and the test substance for binding to integrin αvβ3 bound to a solid phase. […]
coat microtiter plates with 250 ng/ml integrin-αvβ3 in 0.05 M NaHCO3 pH 9.2; 0.1 ml/well; […]
saturate with 1% milk powder/assay buffer; 0.3 ml/well; 0.5 h/RT wash 3× with 0.05% Tween 20/assay buffer
Test substance in 0.1% milk powder/assay buffer, 50 μl/well+0 μg/ml or 2 μg/ml human vitronectin (Boehringer Ingelheim T007) in 0.1% milk powder/assay buffer, 50 μl/well; 1 h/RT […]
1 μg/ml anti human vitronectin antibody coupled to peroxidase (Kordia SAVN-APHRP) in 0.1%: milk powder/assay buffer; 0.1 ml/well; 1 h/RT […]
0.1 ml/well peroxidase substrate […]
stop reaction with 0.1 ml/well 2 M H2SO4 […]
measure the absorption at 450 nm
Integrin αvβ3: human placenta is solubilized with Nonidet, and integrin αvβ3 is affinity-purified on a GRGDSPK matrix (elution with EDTA). Contamination by integrin αIIbβ3 and human serum albumin, as well as the detergent and EDTA, are removed by anion exchange chromatography.
Assay buffer: 50 mM tris pH 7.5; 100 mM NaCl; 1 mM CaCl2; 1 mM MgCl2; 10 ΞM MnCl2 […]
Peroxidase substrate: mix 0.1 ml of TMB solution (42 mM TMB In DMSO) and 10 ml of substrate buffer (0.1 M Na acetate pH 4.9) and then add 14.7 pi of 3% H2O2. […]

In the case of Cc1cn(CC(Cc2ccc3ccccc3c2)C(=O)O)c(=O)nc1N1CCC(Nc2nc3ccccc3[nH]2)CC1.O=C(O)C(F)(F)F (stereo not shown) [Compound I, 2-[(1-{1-[2-Carboxy-3-(2-naphthyl)propyl]-5-methyl-2-oxo-1,2-dihydropyrimidin-4-yl)-piperidin-4-yl)amino]-1H-benzimidazol-1-ium trifluoroacetate], the “IC50 values (concentration of the ligand at which 50% of the ligand is displaced)” value is reported as “best result”.
